Experimental data as given in patent publication US4264577A, “Contraceptive methods and compositions” (Eli Lilly and Company, priority 1980, dated 1981).
Values joined by “and” are separate entries in the source; they are usually repeats but may differ in a detail not shown here. Equal values may be shown once.

Legend:
female rabbits = assay: Drug release rate and efficacy in vivo, intravaginal medicated rubber rings; design: species or system rabbit; conditions: vaginal ring 500 mg, 20% W/W; for Amount of sodium n-tetradecyl sulfate released. (μg. per day): per animal; for No. of Embryos (per animal): sulfate
Method: Dimethylpolysiloxane rods (4 mm. diameter) weighing 500 mg. and containing 20% (W/W) sodium n-tetradecyl sulfate (prepared by Example 3, Method B, lot no. 225-3) are formed into a circle of approximately 20 mm. diameter. The rings are inserted into the vagina of female rabbits and are held in place by sutures. The rabbits are bred either 7 or 32 days after insertion of the rings. Eleven days after breeding, the animals are sacrificed and the genital system examined for pregnancy. The rings are removed, washed, and extracted with methanol (24 hour continuous,) to remove the remaining sodium n-tetradecyl sulfate. The amount of active compound is determined by the methylene blue method, as described in Part A, above. The amount of sodium n-tetradecyl sulfate remaining in the circular rod is subtracted from the original amount present, and the difference is assumed to be the amount released over the time period.

[1] = test system: Dutch belted virgin rabbits; assay: Antifertility effect by intrauterine administration (medicated rubber rod in uterine horn); format: in vivo, rabbit; conditions: 40-mg rod, 10% W/W, in right uterine horn; 8 uterine horns; 14 days after breeding
Method: Dutch belted virgin rabbits, each weighing 3-4 pounds, are randomly selected and anesthetized with sodium pentobarbital ([…].) administered by IV drip. The uterus of each animal is exposed and a 40-mg. sample in the shape of a rod (3 mm. in diameter) of dimethylpolysiloxane rubber (as prepared in Example 3, Method A) containing 10% W/W of sodium tetradecyl sulfate is sutured into the right uterine horn at a random location in between the cervix and the uterotubal junction. The left horn is left untreated to serve as control. The rubber rod is placed into the uterine horn by passing a curved needle through it and through the uterine wall pulling the rod into the uterine lumen. The entry is closed by suturing. Animals (blank) are similarly treated using unmedicated dimethylpolysiloxane rubber to serve as a second group of controls. The animals are given 300,000 units of Duracillin®) per day (in four doses) and are allowed to recover for 14 days. Each animal is bred to a male of proven fertility and is immediately given a dose (IV) of appropoximately 100 units of human chorionic gonadotropin (HCG) to facilitate ovulation. Fourteen days after breeding, the animal are sacrificed by cervical dislocation and the uterine horns are examined for implanted embryos. The number of embryos per uterine horn are recorded. […]

sperm = assay: Standard in vitro spermicidal tests (kill or immobilize sperm); format: cell-based; conditions: standard in vitro tests: ability to kill or immobilize sperm
Excerpt: The alkyl or alkenyl sulfate salts have surface-active properties, and the sodium salts of dodecyl sulfate (lauryl sulfate), tetradecyl sulfate (myristyl sulfate), and hexadecyl sulfate (cetyl sulfate) are particularly useful surfactants for many applications. Sodium lauryl sulfate, for example, is widely used in topical creams, lotions and other preparations used for pharmaceutical or cosmetic purposes. A mixture of sodium lauryl sulfate and sodium myristyl sulfate is used commercially as a wetting agent, primarily in the paper industry. It is well known that surfactants may denature proteins when present in aqueous solutions in sufficient concentrations because the surface activity may affect peptide conformation.

[2] = Drug release rate in vitro from dimethylpolysiloxane rubber, Method A (calcium-free Ringer's, assayed by acrosin inhibition); format: physicochemical
Method: An appropriate sample of a dimethylpolysiloxane rubber compound in which is incorporated the test compound is placed in a suitable amount of calcium-free Ringers solution, and the sample and solution are incubated together at 37° C. for a period of time (e.g. 24 hours). The solution is removed and assayed for acrosin inhibition (expressed as units per milligram) using the technique described in Example 1. The equivalent amount of test compound in the removed solution is calculated from standard inhibition curves in which acrosin inhibition is plotted against concentration of the test compound. The calculated result are expressed as micrograms of test compound released per day.
The above test may be repeated for an extended period of time, for example, for 1 day to 360 days, or more, by adding fresh calcium-free Ringer's solution after each removal of the solution for assay.
Samples of a dimethylpolysiloxane rubber composition containing 10% W/W of sodium n-tetradecyl sulfate (prepared by Example 3, Method A) were tested as above described for 14 days. The sample weight was 14 mg. and the amount of added solution was 1 ml. After the 14th day, the release rate from the samples averaged 1-3 micrograms/day.
In another experiment, a dimethylpolysiloxane rubber composition weighing 400 mg. and containing 10% W/W of sodium tetradecyl sulfate (prepared by Example 3, Method A) was studied for a 90-day period.

CCCCCCCCCCCCCCOS(=O)(=O)[O-].[Na+] [n-tetradecyl, sodium n-tetradecyl sulfate]
Amount of sodium n-tetradecyl sulfate released. (μg. per day) (female rabbits; after seven days): 760 μg. per day and 470 μg. per day and 961 μg. per day and 277 μg. per day and 894 μg. per day
Amount of sodium n-tetradecyl sulfate released. (μg. per day) (female rabbits; after thirty-two days): 644 μg. per day and 522 μg. per day and 288 μg. per day
No. of Embryos (per animal) (female rabbits; bred after seven days): 0 and 8 and 5
No. of Embryos (per animal) (female rabbits; bred after thirty-two days): 0 and 3
Embryos Horn (x ± S.D.) [1]: 0
Total No. of embryos [1]: 0
classical spermicidal activity (sperm): does not show classical spermicidal activity
release rate from the samples (average) ([2]; 14 mg sample, 10% W/W, 1 ml solution, after the 14th day): 1-3 micrograms/day
mean release rate ([2]; 400 mg composition, 10% W/W, 90-day period): 14 µg/day
Amount of sodium n-tetradecyl sulfate released ([2]; Day 0.08 (2 hr.), 400 mg composition, 10% W/W): 77 µg/day
Amount of sodium n-tetradecyl sulfate released ([2]; Day 0.16 (2 hr.), 400 mg composition, 10% W/W): 75 µg/day
Amount of sodium n-tetradecyl sulfate released ([2]; Day 0.32 (8 hr.), 400 mg composition, 10% W/W): 72 µg/day
Amount of sodium n-tetradecyl sulfate released ([2]; Day 1, 400 mg composition, 10% W/W): 69 µg/day
Amount of sodium n-tetradecyl sulfate released ([2]; Day 2, 400 mg composition, 10% W/W): 50 µg/day
Amount of sodium n-tetradecyl sulfate released ([2]; Day 5, 400 mg composition, 10% W/W): 15 µg/day
Amount of sodium n-tetradecyl sulfate released ([2]; Day 7, 400 mg composition, 10% W/W): 37.5 µg/day
Amount of sodium n-tetradecyl sulfate released ([2]; Day 9, 400 mg composition, 10% W/W): 50.0 µg/day
Amount of sodium n-tetradecyl sulfate released ([2]; Day 12, 400 mg composition, 10% W/W): 13 µg/day
Amount of sodium n-tetradecyl sulfate released ([2]; Day 13, 400 mg composition, 10% W/W): 0 µg/day
Amount of sodium n-tetradecyl sulfate released ([2]; Day 15, 400 mg composition, 10% W/W): 25 µg/day
Amount of sodium n-tetradecyl sulfate released ([2]; Day 18, 400 mg composition, 10% W/W): 28 µg/day
Amount of sodium n-tetradecyl sulfate released ([2]; Day 27, 400 mg composition, 10% W/W): 10 µg/day
Amount of sodium n-tetradecyl sulfate released ([2]; Day 42.5, 400 mg composition, 10% W/W): 7.6 µg/day
Amount of sodium n-tetradecyl sulfate released ([2]; Day 50.5, 400 mg composition, 10% W/W): 10.5 µg/day
Amount of sodium n-tetradecyl sulfate released ([2]; Day 57.5, 400 mg composition, 10% W/W): 12.0 µg/day
Amount of sodium n-tetradecyl sulfate released ([2]; Day 64.5, 400 mg composition, 10% W/W): 8.6 µg/day
Amount of sodium n-tetradecyl sulfate released ([2]; Day 72.5, 400 mg composition, 10% W/W): 8.3 µg/day
Amount of sodium n-tetradecyl sulfate released ([2]; Day 76, 400 mg composition, 10% W/W): 5.6 µg/day
Amount of sodium n-tetradecyl sulfate released ([2]; Day 83, 400 mg composition, 10% W/W): 5.1 µg/day
Amount of sodium n-tetradecyl sulfate released ([2]; Day 90, 400 mg composition, 10% W/W): 5.0 µg/day
Release rate from dimethylpolysiloxane, in vitro (Calc. on basis of acrosin inhibition) ([2]; rod used in Table 6): 1 to 3 mg/day
